Test results published in patent publication US12492197B2, “3,5-disubstituted pyrazole compounds as kinase inhibitors and uses thereof” (IMPACT THERAPEUTICS (SHANGHAI), INC, priority 2019, dated 2025).
pIC50: −log10 of the molar value.

Experiments:
CHK1 kinase = biological target: T1, CHK1 kinase (Homo sapiens, UniProt O14757); experiment: CHK1 kinase inhibition, ADP-Glo kinase assay; type: biochemical; conditions: ATP 10 μM, CHK1 1 ng/well; for inhibition at 0.01 µM: compound concentration 10 nM, read-out: Inh % (inhibitory effect on CHK1 kinase activity); for pIC50: read-out: IC50 (inhibitory effect on CHK1 kinase activity)
T1 construct: purchased Promega V1941
T1 sequence (O14757 1-476): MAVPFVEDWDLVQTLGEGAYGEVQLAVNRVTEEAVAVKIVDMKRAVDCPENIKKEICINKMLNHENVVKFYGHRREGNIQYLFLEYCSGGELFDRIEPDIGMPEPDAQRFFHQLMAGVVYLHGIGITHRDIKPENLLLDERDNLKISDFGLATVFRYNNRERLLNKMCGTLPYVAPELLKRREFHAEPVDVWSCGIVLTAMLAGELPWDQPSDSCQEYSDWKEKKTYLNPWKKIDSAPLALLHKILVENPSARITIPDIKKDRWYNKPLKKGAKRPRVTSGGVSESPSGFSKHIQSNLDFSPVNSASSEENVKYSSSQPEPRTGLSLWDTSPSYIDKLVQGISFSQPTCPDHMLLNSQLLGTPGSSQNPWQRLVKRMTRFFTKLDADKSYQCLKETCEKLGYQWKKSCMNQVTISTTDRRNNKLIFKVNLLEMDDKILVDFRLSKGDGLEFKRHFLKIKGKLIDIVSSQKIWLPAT
Procedure: 2 μL of kinase CHK1 (#V1941, Promega), 1 μL of compound diluted with buffer, and 2 μL of ATP substrate was successively added to a 384-well plate (final concentration of CHK1 was 1 ng/well, ATP was 10 μM). The positive control wells contained CHK1, ATP and DMSO whereas the negative control wells contained ATP, DMSO without enzyme. The mixtures were centrifuged at 1000 rpm for 1 minute and kept in darkness at room temperature for 1 hour to react. Then, 5 μL of ADP-Glo reagent was added to each well and incubated at room temperature for 40 minutes. At the end of incubation, 10 μL of kinase detection reagent was added to each well, and the relative chemiluminescence values (RLU) were measured on Varioskan® Flash (Thermo). The following calculation was performed: Inhibition rate %=(RLU of positive control−RLU of compound)/(RLU of positive control−RLU of negative control)×100. Data were analyzed using GraphPad Prism6.0 and fitted using the curve equation: Y=Bottom+(Top-Bottom)/(1+10^((Log IC50−X)*HillSlope)), and IC50 values were calculated.

[1] = system: human breast cancer cell HCC1806; experiment: Proliferation of HCC1806 cells, MTT assay; type: cell-based; conditions: HCC1806, 72 h, 3 days treatment, read-out: IC50 (inhibition of proliferation of HCC1806)
Procedure: Newly revived HCC1806 cells (purchased from Guangzhou Genio) were cultured and passaged for at least three generations before use. Cells were used at 90% confluency for experiments. Cells were digested with trypsinase and centrifuged at 800 rpm for 5 minutes. The cell pellets were resuspended in fresh RPMI1640 medium and cells were counted. Cells were seeded on 96-well cell culture plates at 2000 cells/well and incubated overnight at 37° C., 5% CO2. The stock solutions of the test substances (including the test compounds and the reference compound) were serially diluted to 8 concentrations with DMSO at a ratio of 1:3. Five μL of each of the serially diluted solutions were added to 120 μL of medium (diluted by 25 times) and mixed by shaking. […] The cell culture plates were returned to incubator at 37° C., 5% CO2 for 3 days. At the end of treatment the cell viability was determined by MTT colorimetric assay. Cell culture medium in each well was replaced by 100 μL/well of serum-free fresh medium containing MTT (0.5 mg/mL), and the culture was continued for additional 4 hours.
(§1) Data was analyzed by GraphPad Prism 6.0. The inhibitory effects of compounds on cell proliferation were plotted based on cell viability vs. the logarithm of compound concentration. Cell viability %=(ODcompound−ODbackground)/(ODDMSO−ODbackground)×100.

[2] = system: human pancreatic cancer cell SW1990; experiment: Proliferation of SW1990 cells, MTT assay; type: cell-based; conditions: SW1990, 120 h, 5 days treatment, read-out: IC50 (inhibition of proliferation of SW1990)
Procedure: Newly revived SW1990 cells (purchased from Shanghai Fuheng Biology) were cultured and passaged for at least three generations before use. Cells were used at about 90% confluency for experiments. Cells were digested with trypsinase and centrifuged at 800 rpm for 5 minutes. The cell pellets were resuspended in fresh DMEM medium and cells were counted. Cells were seeded on 96-well cell culture plates at 5000 cells/well and incubated overnight at 37° C., 5% CO2. The stock solutions of the test substances (including the test compounds and the reference compound) were serially diluted to 8 concentrations with DMSO at a ratio of 1:3. 5 μL of each serially diluted solutions was added to 120 μL of medium (diluted by 25 times) and mixed by shaking. […] The cell culture plates were returned to incubator at 37° C. and 5% CO2 for 5 days. At the end of the treatment the cell viability was determined by MTT colorimetric assay. Cell culture medium in each well was replaced by 100 μL/well of serum-free fresh medium containing MTT (0.5 mg/mL), and the culture was continued for additional 4 hours. Medium was then discarded and 100 μL/well of DMSO was added.
as §1

[3] = system: human colon cancer cell LoVo; experiment: Proliferation of LoVo cells, MTT assay; type: cell-based; conditions: 96 h, 4 days treatment, read-out: IC50 (inhibition of proliferation of LoVo)
Procedure: Newly revived LoVo cells (purchased from Shanghai Cell Institute) were cultured and passaged for at least three generations before use. Cells were used at 90% confluence for experiment. Cells were digested with trypsinase and centrifuged at 800 rpm for 5 minutes and the supernatant was discarded. The cell pellets were resuspended in fresh RPMI1640 medium and counted. Cells were seeded on 96-well cell culture plates at 5000 cells/well and incubated overnight at 37° C., 5% CO2. The stock solutions of the test substances (including the test compounds and the reference compound) were serially diluted to 8 concentrations with DMSO at a ratio of 1:3. 5 μL of each series diluted solutions was added to 120 μL of medium (diluted by 25 times) and mixed by shaking. […] The cell culture plates were returned to incubator at 37° C. and 5% CO2 for 4 days. At the end of treatment, the cell viability was determined by MTT colorimetric assay. Cell culture medium in each well was replaced by 100 μL/well of serum-free DMEM medium containing MTT (0.5 mg/mL), and the culture was continued for additional 4 hours. Medium was then discarded and 100 μL/well of DMSO was added.
as §1

Structure (SMILES)	inhibition at 0.01 µM (CHK1 kinase)	pIC50 [1]	pIC50 [2]	pIC50 (CHK1 kinase)	pIC50 [3]
COc1cccc(OC[C@@H]2CNCCO2)c1-c1cc(Nc2ccc(C#N)nc2)n[nH]1 [Example 2, (S)-5-((5-(2-methoxy-6-(morpholin-2-ylmethoxy)phenyl)-1H-pyrazol-3-yl)amino)picolinonitrile]	85%	6.81	7.07		
COc1ccc(Cl)c(OC[C@@H]2CNCCO2)c1-c1cc(Nc2cnc(C#N)cn2)n[nH]1 [Example 17, (S)-5-((5-(3-chloro-6-methoxy-2-(morpholin-2-ylmethoxy)phenyl)-1H-pyrazol-3-yl)amino)pyrazine-2-carbonitrile]	50%	6.05	6.21		
COc1cc(Cl)cc(OC[C@H]2CCNC2)c1-c1cc(Nc2cnc(C#N)cn2)n[nH]1 [Example 68, (S)-5-((5-(4-chloro-2-methoxy-6-(pyrrolidin-3-ylmethoxy)phenyl)-1H-pyrazol-3-yl)amino)pyrazine-2-carbonitrile]		8.55		9.36	8.64
N#Cc1cnc(Nc2cc(-c3c(F)cccc3OC[C@@H]3CNCCO3)[nH]n2)cn1 [Example 55, (S)-5-((5-(2-fluoro-6-(morpholin-2-ylmethoxy)phenyl)-1H-pyrazol-3-yl)amino)pyrazine-2-carbonitrile]	82%	6.50			6.82
N#Cc1cnc(Nc2cc(-c3c(OC[C@@H]4CNCCO4)cccc3OC(F)(F)F)[nH]n2)cn1 [Example 20, (S)-5-((5-(2-(morpholin-2-ylmethoxy)-6-(trifluoromethoxy)phenyl)-1H-pyrazol-3-yl)amino)pyrazine-2-carbonitrile]	31%	6.00			< 6.00
COc1cccc(OC[C@@H]2CNCCO2)c1-c1cc(Nc2cnc(C)cn2)n[nH]1 [Example 6, (S)—N-(5-(2-methoxy-6-(morpholin-2-ylmethoxy)phenyl)-1H-pyrazol-3-yl)-5-methylpyrazin-2-amine]	85%	6.73			6.72
N#Cc1cnc(Nc2cc(-c3c(F)cc(F)cc3OC[C@H]3CCCNC3)[nH]n2)cn1 [Example 56, (S)-5-((5-(2,4-difluoro-6-(piperidin-3-ylmethoxy)phenyl)-1H-pyrazol-3-yl)amino)pyrazine-2-carbonitrile]		7.56		8.99	7.65
COc1cc(C)cc(OC[C@@H]2CNCCO2)c1-c1cc(Nc2cnc(C#N)cn2)n[nH]1 [Example 44, (S)-5-((5-(2-methoxy-4-methyl-6-(morpholin-2-ylmethoxy)phenyl)-1H-pyrazol-3-yl)amino)pyrazine-2-carbonitrile]		7.88		9.03	7.74
COc1cccc(OC[C@H]2CCCNC2)c1-c1cc(Nc2ccc(C#N)nn2)n[nH]1 [Example 25, (S)-6-((5-(2-methoxy-6-(piperidin-3-ylmethoxy)phenyl)-1H-pyrazol-3-yl)amino)pyridazine-3-carbonitrile]	91%	6.95			6.98
COc1cc(F)cc(OC[C@H]2CCNC2)c1-c1cc(Nc2cnc(C#N)cn2)n[nH]1 [Example 39, (S)-5-((5-(4-fluoro-2-methoxy-6-(pyrrolidin-3-ylmethoxy)phenyl)-1H-pyrazol-3-yl)amino)pyrazine-2-carbonitrile]		9.00		9.70	9.00

The remaining lines, values ahead:

inhibition at 0.01 µM (CHK1 kinase)	pIC50 [1]	pIC50 [2]	pIC50 (CHK1 kinase)	pIC50 [3]	Structure (SMILES)
95%	7.61			7.64	COc1cccc(OC[C@@H]2CNCCN2)c1-c1cc(Nc2cnc(C#N)cn2)n[nH]1 [Example 10, (S)-5-((5-(2-methoxy-6-(piperazin-2-ylmethoxy)phenyl)-1H-pyrazol-3-yl)amino)pyrazine-2-carbonitrile]
	7.92		9.59	8.14	COc1cccc(OC[C@H]2CCCN2)c1-c1cc(Nc2cnc(C#N)cn2)n[nH]1 [Example 65, (R)-5-((5-(2-methoxy-6-(pyrrolidin-2-ylmethoxy)phenyl)-1H-pyrazol-3-yl)amino)pyrazine-2-carbonitrile]
	7.67		8.75	7.67	CCOc1cccc(OC[C@H]2CCCNC2)c1-c1cc(Nc2cnc(C#N)cn2)n[nH]1 [Example 35, (S)-5-((5-(2-ethoxy-6-(piperidin-3-ylmethoxy)phenyl)-1H-pyrazol-3-yl)amino)pyrazine-2-carbonitrile]
95%	7.05			7.14	N#Cc1cnc(Nc2cc(-c3c(F)cccc3OCC3CNC3)[nH]n2)cn1 [Example 53, 5-((5-(2-(azetidin-3-ylmethoxy)-6-fluorophenyl)-1H-pyrazol-3-yl)amino)pyrazine-2-carbonitrile]
40%	6.42			6.27	N#Cc1cnc(Nc2cc(-c3c(Cl)cccc3OC[C@H]3CCCNC3)[nH]n2)cn1 [Example 47, (S)-5-((5-(2-chloro-6-(piperidin-3-ylmethoxy)phenyl)-1H-pyrazol-3-yl)amino)pyrazine-2-carbonitrile]
63%	6.16			6.09	CC(C)Oc1cccc(OC[C@H]2CCCNC2)c1-c1cc(Nc2cnc(C#N)cn2)n[nH]1 [Example 36, (S)-5-((5-(2-isopropoxy-6-(piperidin-3-ylmethoxy)phenyl)-1H-pyrazol-3-yl)amino)pyrazine-2-carbonitrile]
91%	7.50			7.59	COc1cccc(OC[C@H]2CCCN(C)C2)c1-c1cc(Nc2cnc(C#N)cn2)n[nH]1 [Example 32, (S)-5-((5-(2-methoxy-6-((1-methylpiperidin-3-yl)methoxy)phenyl)-1H-pyrazol-3-yl)amino)pyrazine-2-carbonitrile]
